Measurements reported in ChEMBL document CHEMBL6078685, “Potential COX-2 inhibitors modulating NF-κB/MAPK signaling pathways: Design, synthesis and evaluation of anti-inflammatory activity of Pterostilbene-carboxylic acid derivatives with an oxime ether moiety” (Bioorg Med Chem, 2025).

Legend:
RAW264.7 [1] = assay: Inhibition of LPS-induced NO release in mouse RAW264.7 cells preincubated with compound for 48 hrs followed by LPS addition and measured after 24 hrs by nitric oxide assay; assay type: functional, cell-based
RAW264.7 [2] = assay: Cytotoxicity against mouse RAW264.7 cells assessed as reduction in cell viability at 20 uM incubated for 48 hrs by MTT method; assay type: toxicity, cell-based; conditions: raw264.7, 48 h
RAW264.7 [3] = assay: Inhibition of LPS-induced NO release in mouse RAW264.7 cells at 20 uM preincubated with compound for 48 hrs followed by LPS addition and measured after 24 hrs by nitric oxide assay relative to control; assay type: functional; conditions: time 72 hrs
RAW264.7 [4] = assay: Antiinflammatory activity against mouse RAW264.7 cells assessed as decrease in LPS-induced IIL-1beta release preincubated for 3 hrs followed by LPS addition for 30 mins by Western blotting analysis; assay type: functional, cell-based; conditions: dose 4-16 µM, time 3.5 hrs
RAW264.7 [5] = assay: cells; conditions: Mus musculus
Description: Antiinflammatory activity against mouse RAW264.7 cells assessed as inhibition of LPS-induced TNF-alpha secretion pretreated with LPS for 3 hrs followed by compound addition and measured after 24 hrs by ELISA

RAW264.7 [6] = assay: cells; conditions: Mus musculus; remark: listed apart in the source
Description: Antiinflammatory activity against mouse RAW264.7 cells assessed as inhibition of LPS-induced IIL-1beta secretion pretreated with LPS for 3 hrs followed by compound addition and measured after 24 hrs by ELISA

RAW264.7 [7] = assay: Antiinflammatory activity against mouse RAW264.7 cells assessed as decrease in LPS-induced IIL-6 release preincubated for 3 hrs followed by LPS addition for 30 mins by Western blotting analysis; assay type: functional, cell-based; conditions: dose 4-16 µM, time 3.5 hrs
RAW264.7 [8] = assay: Antiinflammatory activity against mouse RAW264.7 cells assessed as decrease in LPS-induced TNF-alpha release preincubated for 3 hrs followed by LPS addition for 30 mins by Western blotting analysis; assay type: functional, cell-based; conditions: dose 4-16 µM
RAW264.7 [9] = assay: Downregulation of COX-2 expression in LPS-induced mouse RAW264.7 cells preincubated for 3 hrs followed by LPS addition for 30 mins by Western blotting analysis; assay type: functional, cell-based; conditions: time 3.5 hrs
RAW264.7 [10] = assay: Downregulation of iNOS expression in LPS-induced mouse RAW264.7 cells preincubated for 3 hrs followed by LPS addition for 30 mins by Western blotting analysis; assay type: functional, cell-based; conditions: time 3.5 hrs
RAW264.7 [11] = assay: cells; conditions: Mus musculus; remark: listed apart in the source
Description: Antiinflammatory activity against mouse RAW264.7 cells assessed as inhibition of LPS-induced IIL-6 secretion pretreated with LPS for 3 hrs followed by compound addition and measured after 24 hrs by ELISA

With `COc1cc(/C=C/c2ccc(OCC(=O)NCCCO)cc2)c(/C=N/OCc2ccc(Cl)cc2)c(OC)c1` the IC50 (RAW264.7 [1]) was 18.1 µM, the Activity (RAW264.7 [2]) was “Non-toxic” and the inhibition at 20 µM (RAW264.7 [3]) was 64.6%.

With `CCCCCCCC(=O)OCCCNC(=O)COc1ccc(/C=C/c2cc(OC)cc(OC)c2/C=N/OCc2ccc(F)cc2)cc1` the Activity (RAW264.7 [2]) was “Non-toxic” and the inhibition at 20 µM (RAW264.7 [3]) was 20.8%.

`CCOC(=O)COc1ccc(/C=C/c2cc(OC)cc(OC)c2/C=N/OCc2ccc(Br)cc2)cc1` was tested, and the Activity (RAW264.7 [2]) was “Non-toxic” and the inhibition at 20 µM (RAW264.7 [3]) was 19.5%.

In the case of `CCOC(=O)COc1ccc(/C=C/c2cc(OC)cc(OC)c2/C=N/OCc2ccc(C)cc2)cc1`, the Activity (RAW264.7 [2]) is reported as “Non-toxic” and the inhibition at 20 µM (RAW264.7 [3]) is reported as 20%.

For `COc1cc(/C=C/c2ccc(OCC(=O)O)cc2)c(/C=N/OCc2ccc(Br)cc2)c(OC)c1`, the Activity (RAW264.7 [2]) was “Non-toxic” and the inhibition at 20 µM (RAW264.7 [3]) was 13.7%.

For `CCCC(=O)OCCCNC(=O)COc1ccc(/C=C/c2cc(OC)cc(OC)c2/C=N/OCc2ccc(F)cc2)cc1`, the Activity (RAW264.7 [2]) was “Non-toxic” and the inhibition at 20 µM (RAW264.7 [3]) was 47.1%.

With `COc1cc(/C=C/c2ccc(OCC(=O)O)cc2)c(/C=N/OCc2ccc(F)cc2)c(OC)c1` the Activity (RAW264.7 [2]) was “Non-toxic” and the inhibition at 20 µM (RAW264.7 [3]) was 26.1%.

With `CCOC(=O)COc1ccc(/C=C/c2cc(OC)cc(OC)c2/C=N/OCc2ccc(C(F)(F)F)cc2)cc1` the Activity (RAW264.7 [2]) was “Non-toxic” and the inhibition at 20 µM (RAW264.7 [3]) was 18.6%.

`CCCCO/N=C/c1c(/C=C/c2ccc(OCC(=O)O)cc2)cc(OC)cc1OC` was tested, and the Activity (RAW264.7 [2]) was “Non-toxic” and the inhibition at 20 µM (RAW264.7 [3]) was 20.2%.

In the case of `COc1cc(/C=C/c2ccc(OCC(=O)NCCCO)cc2)c(/C=N/OCc2ccccc2)c(OC)c1`, the Activity (RAW264.7 [2]) is reported as “Non-toxic” and the inhibition at 20 µM (RAW264.7 [3]) is reported as 34.7%.

For `COc1cc(/C=C/c2ccc(OCC(=O)NCCCO)cc2)c(/C=N/OCc2ccc(F)cc2)c(OC)c1`, the Activity (RAW264.7 [4]) was “Dose-dependent-effect”, the IC50 (RAW264.7 [1]) was 9.87 µM and the IC50 (RAW264.7 [5]) was 9.14 µM. The IC50 (RAW264.7 [6]) was 7.36 µM, the Activity (RAW264.7 [7]) was “Dose-dependent-effect” and the Activity (RAW264.7 [8]) was “Dose-dependent-effect”. For the same compound, the Activity (RAW264.7 [9]) was “Dose-dependent-effect”, the Activity (RAW264.7 [10]) was “Dose-dependent-effect” and the Activity (RAW264.7 [2]) was “Non-toxic”. The IC50 (RAW264.7 [11]) was 6.76 µM and the inhibition at 20 µM (RAW264.7 [3]) was 86.7%.

For `COc1cc(/C=C/c2ccc(OCC(=O)O)cc2)c(/C=N/OCc2ccc(Cl)c(F)c2)c(OC)c1`, the Activity (RAW264.7 [2]) was “Non-toxic” and the inhibition at 20 µM (RAW264.7 [3]) was 23.8%.

With `CCNC(=O)COc1ccc(/C=C/c2cc(OC)cc(OC)c2/C=N/OCc2ccc(Br)c(F)c2)cc1` the Activity (RAW264.7 [2]) was “Non-toxic” and the inhibition at 20 µM (RAW264.7 [3]) was 42.1%.

`COc1cc(/C=C/c2ccc(OCC(=O)O)cc2)c(/C=N/OCc2ccc(C(F)(F)F)cc2)c(OC)c1` was tested, and the Activity (RAW264.7 [2]) was “Non-toxic” and the inhibition at 20 µM (RAW264.7 [3]) was 21.8%.

With `COc1cc(/C=C/c2ccc(OCC(=O)O)cc2)c(/C=N/OCc2ccccc2)c(OC)c1` the Activity (RAW264.7 [2]) was “Non-toxic” and the inhibition at 20 µM (RAW264.7 [3]) was 25.2%.

With `CCOC(=O)COc1ccc(/C=C/c2cc(OC)cc(OC)c2/C=N/OCc2ccc(Cl)cc2)cc1` the Activity (RAW264.7 [2]) was “Non-toxic” and the inhibition at 20 µM (RAW264.7 [3]) was 29%.

With `CCNC(=O)COc1ccc(/C=C/c2cc(OC)cc(OC)c2/C=N/OCc2ccc(F)cc2)cc1` the IC50 (RAW264.7 [1]) was 14.6 µM, the Activity (RAW264.7 [2]) was “Non-toxic” and the inhibition at 20 µM (RAW264.7 [3]) was 68.5%.

With `COc1cc(/C=C/c2ccc(OCC(=O)NCCCO)cc2)c(/C=N/OCc2ccc(Br)c(F)c2)c(OC)c1` the Activity (RAW264.7 [2]) was “Non-toxic” and the inhibition at 20 µM (RAW264.7 [3]) was 48%.

With `CCOC(=O)COc1ccc(/C=C/c2cc(OC)cc(OC)c2/C=N/OCc2ccc(Br)c(F)c2)cc1` the Activity (RAW264.7 [2]) was “Non-toxic” and the inhibition at 20 µM (RAW264.7 [3]) was 29.3%.

For `CCNC(=O)COc1ccc(/C=C/c2cc(OC)cc(OC)c2/C=N/OCc2ccc(Cl)cc2)cc1`, the Activity (RAW264.7 [2]) was “Non-toxic” and the inhibition at 20 µM (RAW264.7 [3]) was 49.2%.

With `CCOC(=O)COc1ccc(/C=C/c2cc(OC)cc(OC)c2/C=N/OCc2ccccc2)cc1` the Activity (RAW264.7 [2]) was “Non-toxic” and the inhibition at 20 µM (RAW264.7 [3]) was 37.8%.

`CCOC(=O)COc1ccc(/C=C/c2cc(OC)cc(OC)c2/C=N/OCc2ccc(F)cc2)cc1` was tested, and the Activity (RAW264.7 [2]) was “Non-toxic” and the inhibition at 20 µM (RAW264.7 [3]) was 28.6%.

With `COc1cc(/C=C/c2ccc(OCC(=O)O)cc2)c(/C=N/OCc2ccc(C)cc2)c(OC)c1` the Activity (RAW264.7 [2]) was “Non-toxic” and the inhibition at 20 µM (RAW264.7 [3]) was 18.9%.

For `CCNC(=O)COc1ccc(/C=C/c2cc(OC)cc(OC)c2/C=N/OCc2ccc(Cl)c(F)c2)cc1`, the Activity (RAW264.7 [2]) was “Non-toxic” and the inhibition at 20 µM (RAW264.7 [3]) was 40.6%.

`CCCCO/N=C/c1c(/C=C/c2ccc(OCC(=O)OCC)cc2)cc(OC)cc1OC` was tested, and the Activity (RAW264.7 [2]) was “Non-toxic” and the inhibition at 20 µM (RAW264.7 [3]) was 17.2%.

In the case of `Cc1ccc(-c2cc(C(F)(F)F)nn2-c2ccc(S(N)(=O)=O)cc2)cc1` [CELECOXIB], the inhibition at 20 µM (RAW264.7 [3]) is reported as 29.4%.

For `C#CCO/N=C/c1c(/C=C/c2ccc(OCC(=O)OCC)cc2)cc(OC)cc1OC`, the Activity (RAW264.7 [2]) was “Non-toxic” and the inhibition at 20 µM (RAW264.7 [3]) was 21.8%.

For `COc1cc(/C=C/c2ccc(OCC(=O)NCCCO)cc2)c(/C=N/OCc2ccc(Cl)c(F)c2)c(OC)c1`, the IC50 (RAW264.7 [1]) was 17.4 µM, the Activity (RAW264.7 [2]) was “Non-toxic” and the inhibition at 20 µM (RAW264.7 [3]) was 61%.

For `C#CCO/N=C/c1c(/C=C/c2ccc(OCC(=O)O)cc2)cc(OC)cc1OC`, the Activity (RAW264.7 [2]) was “Non-toxic” and the inhibition at 20 µM (RAW264.7 [3]) was 22.2%.

For `CCCCCC(=O)OCCCNC(=O)COc1ccc(/C=C/c2cc(OC)cc(OC)c2/C=N/OCc2ccc(F)cc2)cc1`, the Activity (RAW264.7 [2]) was “Non-toxic” and the inhibition at 20 µM (RAW264.7 [3]) was 33.1%.

`COc1cc(/C=C/c2ccc(OCC(=O)O)cc2)c(/C=N/OCc2ccc(Br)c(F)c2)c(OC)c1` was tested, and the Activity (RAW264.7 [2]) was “Non-toxic” and the inhibition at 20 µM (RAW264.7 [3]) was 25.8%.

`CCOC(=O)COc1ccc(/C=C/c2cc(OC)cc(OC)c2/C=N/OCc2ccc(Cl)c(F)c2)cc1` was tested, and the Activity (RAW264.7 [2]) was “Non-toxic” and the inhibition at 20 µM (RAW264.7 [3]) was 28.1%.

`CCNC(=O)COc1ccc(/C=C/c2cc(OC)cc(OC)c2/C=N/OCc2ccccc2)cc1` was tested, and the IC50 (RAW264.7 [1]) was 12.3 µM, the Activity (RAW264.7 [2]) was “Non-toxic” and the inhibition at 20 µM (RAW264.7 [3]) was 71.3%.

`COc1cc(/C=C/c2ccc(OCC(=O)O)cc2)c(/C=N/OCc2ccc(Cl)cc2)c(OC)c1` was tested, and the Activity (RAW264.7 [2]) was “Non-toxic” and the inhibition at 20 µM (RAW264.7 [3]) was 24.8%.
